The structures appear in SMILES notation.

The target of the test is T1, human H3 receptor (Homo sapiens, UniProt Q9Y5N1).
T1 construct: purchased Perkin Elmer ES-392-M400UA; host or cells: CHO-K1 cells (recombinant expression), membrane preparation
T1 sequence (Q9Y5N1 whole entry): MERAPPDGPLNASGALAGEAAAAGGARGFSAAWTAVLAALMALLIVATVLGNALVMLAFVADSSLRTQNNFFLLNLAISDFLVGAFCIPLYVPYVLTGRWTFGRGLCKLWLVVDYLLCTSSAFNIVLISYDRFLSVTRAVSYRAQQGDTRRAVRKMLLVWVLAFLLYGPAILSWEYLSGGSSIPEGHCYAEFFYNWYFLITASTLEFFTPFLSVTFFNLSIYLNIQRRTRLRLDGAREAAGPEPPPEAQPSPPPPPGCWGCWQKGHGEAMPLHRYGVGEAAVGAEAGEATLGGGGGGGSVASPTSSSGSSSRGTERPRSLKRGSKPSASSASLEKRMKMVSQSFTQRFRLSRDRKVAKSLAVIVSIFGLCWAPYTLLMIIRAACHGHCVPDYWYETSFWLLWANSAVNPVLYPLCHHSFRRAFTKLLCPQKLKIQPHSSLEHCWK
The experiment in a line: H3 Receptor Binding Test. To be noted: 50% inhibition of R(−)-α-methyl[3H]histamine (1 nM) binding; membrane preparation of human H3 receptor-expressing CHO-K1 cells. Here is the method: A membrane preparation of human H3 receptor-expressing CHO-K1 cells (Perkin Elmer, ES-392-M400UA, 15 μg protein/200 μl), R(−)-α-methyl[^3H]histamine (Amersham, TRK-1017, specific activity: 1.74 TBq/mmol, 1 nM) and a test drug were reacted at room temperature for 1 hour. After completion of the reaction, the reaction mixture was subjected to suction filtration through a 0.3% polyethyleneimine-treated glass filter (GF/C). The glass filter was washed five times with 50 mM Tris-HCl washing solution (pH 7.4) containing 5 mM EDTA. After washing, the glass filter was dried and a scintillator was added thereto, followed by measurement of radioactivity on the filter using a liquid scintillation counter.
Binding of R(−)-α-methyl[^3H]histamine in the presence of 10 μM R(−)-α-methylhistamine was defined as non-specific binding, and the difference between total binding and non-specific binding of R(−)-α-methyl[^3H]histamine was defined as specific binding of R(−)-α-methyl[^3H]histamine. A fixed concentration (1 nM) of R(−)-α-methyl[^3H]histamine was reacted under the above conditions with each test drug at various concentrations to obtain an inhibition curve. The inhibition curve was used to determine the concentration (IC50) of each test drug required for 50% inhibition of R(−)-α-methyl[^3H]histamine binding.
Usually IC50 stands for the midpoint of a concentration-inhibition curve. Consider `C[C@@H]1CCCN1CCCOc1ccc2c(c1)CCC(=O)N2c1ccc(C#N)cc1` [Compound No. 1, 4-[6-{3-[(2R)-2-methylpyrrolidin-1-yl]propoxy}-2-oxo-3,4-dihydroquinolin-1(2H)-yl]benzonitrile], for which the IC50 was determined as 4.4 nM.

On to `C[C@@H]1CCCN1CCCOc1ccc2c(c1)CCC(=O)N2c1ccccc1` [Compound No. 2, 6-{3-[(2R)-2-methylpyrrolidin-1-yl]propoxy}-1-phenyl-3,4-dihydroquinolin-2(1H)-one], for which the IC50 was found to be 0.79 nM.

With `Cc1ccc(N2C(=O)CCc3cc(OCCCN4CCC[C@H]4C)ccc32)cc1` [Compound No. 3, 1-(4-methylphenyl)-6-{3-[(2R)-2-methylpyrrolidin-1-yl]propoxy}-3,4-dihydroquinolin-2(1H)-one], the IC50 was 1 nM.

For `COc1ccc(N2C(=O)CCc3cc(OCCCN4CCC[C@H]4C)ccc32)cc1` [Compound No. 4, 1-(4-methoxyphenyl)-6-{3-[(2R)-2-methylpyrrolidin-1-yl]propoxy}-3,4-dihydroquinolin-2(1H)-one], the IC50 came out at 2.7 nM. The same measure for `CCOc1ccc(N2C(=O)CCc3cc(OCCCN4CCC[C@H]4C)ccc32)cc1` [Compound No. 5, 1-(4-ethoxyphenyl)-6-{3-[(2R)-2-methylpyrrolidin-1-yl]propoxy}-3,4-dihydroquinolin-2(1H)-one]: 3.9 nM; for `C[C@@H]1CCCN1CCCOc1ccc2c(c1)CCC(=O)N2c1ccc(Cl)cc1` [Compound No. 7, 1-(4-chlorophenyl)-6-{3-[(2R)-2-methylpyrrolidin-1-yl]propoxy}-3,4-dihydroquinolin-2(1H)-one]: 1.6 nM; for `C[C@@H]1CCCN1CCCOc1ccc2c(c1)CCC(=O)N2c1ccc(C(F)(F)F)cc1` [Compound No. 8, 6-{3-[(2R)-2-methylpyrrolidin-1-yl]propoxy}-1-[4-(trifluoromethyl)phenyl]-3,4-dihydroquinolin-2(1H)-one]: 1.6 nM.

Regarding `C[C@@H]1CCCN1CCCOc1ccc2c(c1)CCC(=O)N2c1ccc(OC(F)(F)F)cc1` [Compound No. 9, 6-{3-[(2R)-2-methylpyrrolidin-1-yl]propoxy}-1-[4-(trifluoromethoxy)phenyl]-3,4-dihydroquinolin-2(1H)-one], the IC50 was 3.5 nM. The same measure for `C[C@@H]1CCCN1CCCOc1ccc2c(c1)CCC(=O)N2c1ccc(CO)cc1` [Compound No. 10, 1-[4-(hydroxymethyl)phenyl]-6-{3-[(2R)-2-methylpyrrolidin-1-yl]propoxy}-3,4-dihydroquinolin-2(1H)-one]: 1.6 nM.

Take `COCc1ccc(N2C(=O)CCc3cc(OCCCN4CCC[C@H]4C)ccc32)cc1` [Compound No. 11, 1-[4-(methoxymethyl)phenyl]-6-{3-[(2R)-2-methylpyrrolidin-1-yl]propoxy}-3,4-dihydroquinolin-2(1H)-one]: the IC50 was 2.9 nM.

Turning to `C[C@@H]1CCCN1CCCOc1ccc2c(c1)CCC(=O)N2c1ccc(C(=O)N2CCCC2)cc1` [Compound No. 14, 6-{3-[(2R)-2-methylpyrrolidin-1-yl]propoxy}-1-[4-(pyrrolidin-1-ylcarbonyl)phenyl]-3,4-dihydroquinolin-2(1H)-one], the half-maximal inhibitory concentration (IC50) was 5.7 nM. The same measure for `CC(=O)c1ccc(N2C(=O)CCc3cc(OCCCN4CCC[C@H]4C)ccc32)cc1` [Compound No. 15, 1-(4-acetylphenyl)-6-{3-[(2R)-2-methylpyrrolidin-1-yl]propoxy}-3,4-dihydroquinolin-2(1H)-one]: 3.6 nM; for `C[C@@H]1CCCN1CCCOc1ccc2c(c1)CCC(=O)N2c1ccc(C(=O)C2CC2)cc1` [Compound No. 16, 1-[4-(cyclopropylcarbonyl)phenyl]-6-{3-[(2R)-2-methylpyrrolidin-1-yl]propoxy}-3,4-dihydroquinolin-2(1H)-one]: 11 nM; for `C[C@@H]1CCCN1CCCOc1ccc2c(c1)CCC(=O)N2c1ccc(N2CCOCC2)cc1` [Compound No. 17, 6-{3-[(2R)-2-methylpyrrolidin-1-yl]propoxy}-1-[4-(morpholin-4-yl)phenyl]-3,4-dihydroquinolin-2(1H)-one]: 41 nM. The same measure for `C[C@@H]1CCCN1CCCOc1ccc2c(c1)CCC(=O)N2c1ccc(N2CCCC2=O)cc1` [Compound No. 18, 6-{3-[(2R)-2-methylpyrrolidin-1-yl]propoxy}-1-[4-(2-oxopyrrolidin-1-yl)phenyl]-3,4-dihydroquinolin-2(1H)-one]: 20 nM. Consider `C[C@@H]1CCCN1CCCOc1ccc2c(c1)CCC(=O)N2c1ccc(-c2cnco2)cc1` [Compound No. 19, 6-{3-[(2R)-2-methylpyrrolidin-1-yl]propoxy}-1-[4-(1,3-oxazol-5-yl)phenyl]-3,4-dihydroquinolin-2(1H)-one], for which the IC50 amounted to 4 nM. The same measure for `Cc1ccc(Oc2ccc(N3C(=O)CCc4cc(OCCCN5CCC[C@H]5C)ccc43)cc2)nn1` [Compound No. 20, 1-{4-[(6-methylpyridazin-3-yl)oxy]phenyl}-6-{3-[(2R)-2-methylpyrrolidin-1-yl]propoxy}-3,4-dihydroquinolin-2(1H)-one]: 1 nM. The same measure for `C[C@@H]1CCCN1CCCOc1ccc2c(c1)CCC(=O)N2c1cccc(C(=O)N(C)C)c1` [Compound No. 21, N,N-dimethyl-3-[6-{3-[(2R)-2-methylpyrrolidin-1-yl]propoxy}-2-oxo-3,4-dihydroquinolin-1(2H)-yl]benzamide]: 26 nM; for `COc1cccc(N2C(=O)CCc3cc(OCCCN4CCC[C@H]4C)ccc32)c1` [Compound No. 22, 1-(3-methoxyphenyl)-6-{3-[(2R)-2-methylpyrrolidin-1-yl]propoxy}-3,4-dihydroquinolin-2(1H)-one]: 1.6 nM; for `COc1ccccc1N1C(=O)CCc2cc(OCCCN3CCC[C@H]3C)ccc21` [Compound No. 23, 1-(2-methoxyphenyl)-6-{3-[(2R)-2-methylpyrrolidin-1-yl]propoxy}-3,4-dihydroquinolin-2(1H)-one]: 1.2 nM. With `C[C@@H]1CCCN1CCCOc1ccc2c(c1)CCC(=O)N2c1cccc(F)c1` [Compound No. 24, 1-(3-fluorophenyl)-6-{3-[(2R)-2-methylpyrrolidin-1-yl]propoxy}-3,4-dihydroquinolin-2(1H)-one], the half-inhibitory concentration (IC50) was 0.92 nM.

On to `COc1ccc(N2C(=O)CCc3cc(OCCCN4CCC[C@H]4C)ccc32)c(OC)c1` [Compound No. 25, 1-(2,4-dimethoxyphenyl)-6-{3-[(2R)-2-methylpyrrolidin-1-yl]propoxy}-3,4-dihydroquinolin-2(1H)-one], for which the IC50 worked out at 2 nM. The same measure for `COc1cc(F)cc(N2C(=O)CCc3cc(OCCCN4CCC[C@H]4C)ccc32)c1` [Compound No. 26, 1-(3-fluoro-5-methoxyphenyl)-6-{3-[(2R)-2-methylpyrrolidin-1-yl]propoxy}-3,4-dihydroquinolin-2(1H)-one]: 2.4 nM; for `C[C@@H]1CCCN1CCCOc1ccc2c(c1)CCC(=O)N2c1cc(F)cc(F)c1` [Compound No. 27, 1-(3,5-difluorophenyl)-6-{3-[(2R)-2-methylpyrrolidin-1-yl]propoxy}-3,4-dihydroquinolin-2(1H)-one]: 2.1 nM; for `C[C@@H]1CCCN1CCCOc1ccc2c(c1)CCC(=O)N2c1ccc(F)c(F)c1` [Compound No. 28, 1-(3,4-difluorophenyl)-6-{3-[(2R)-2-methylpyrrolidin-1-yl]propoxy}-3,4-dihydroquinolin-2(1H)-one]: 1 nM.

As for `C[C@@H]1CCCN1CCCOc1ccc2c(c1)CCC(=O)N2c1ccc(F)cc1F` [Compound No. 29, 1-(2,4-difluorophenyl)-6-{3-[(2R)-2-methylpyrrolidin-1-yl]propoxy}-3,4-dihydroquinolin-2(1H)-one], the half-inhibitory concentration (IC50) is 1 nM. With `C[C@@H]1CCCN1CCCOc1ccc2c(c1)CCC(=O)N2c1ccc(Cl)cc1F` [Compound No. 30, 1-(4-chloro-2-fluorophenyl)-6-{3-[(2R)-2-methylpyrrolidin-1-yl]propoxy}-3,4-dihydroquinolin-2(1H)-one], the IC50 came to 1.1 nM. The same measure for `C[C@@H]1CCCN1CCCOc1ccc2c(c1)CCC(=O)N2c1cc(Cl)cc(C#N)c1` [Compound No. 31, 3-chloro-5-[6-{3-[(2R)-2-methylpyrrolidin-1-yl]propoxy}-2-oxo-3,4-dihydroquinolin-1(2H)-yl]benzonitrile]: 1.9 nM.

With `Cc1ccc(N2C(=O)CCc3cc(OCCCN4CCC[C@H]4C)ccc32)cc1C#N` [Compound No. 32, 2-methyl-5-[6-{3-[(2R)-2-methylpyrrolidin-1-yl]propoxy}-2-oxo-3,4-dihydroquinolin-1(2H)-yl]benzonitrile], the half-maximal inhibitory concentration (IC50) stood at 2.7 nM. The same measure for `COc1ccc(N2C(=O)CCc3cc(OCCCN4CCC[C@H]4C)ccc32)cc1C#N` [Compound No. 33, 2-methoxy-5-[6-{3-[(2R)-2-methylpyrrolidin-1-yl]propoxy}-2-oxo-3,4-dihydroquinolin-1(2H)-yl]benzonitrile]: 4 nM; for `C[C@@H]1CCCN1CCCOc1ccc2c(c1)CCC(=O)N2c1ccccn1` [Compound No. 34, 6-{3-[(2R)-2-methylpyrrolidin-1-yl]propoxy}-1-(pyridin-2-yl)-3,4-dihydroquinolin-2(1H)-one]: 8.1 nM.

These data come from patent publication US8609847B2, “Dihydroquinolinone derivatives” (Taisho Pharmaceutical Co., Ltd, priority 2009, dated 2013).
